Species: Rattus norvegicus
Assay: DrugMatrix - Regimen: Daily Repeat
Format: toxicity, organism-based, Sprague-Dawley
Parameters: regimen Daily Repeat, gender Male, age 6-8 weeks
Conditions: in vivo, po, route oral GAVAGE, vehicle .5 % CMC; for BASOPHIL / EOSINOPHIL / ERYTHROCYTE COUNT / HEMATOCRIT / HEMOGLOBIN / LEUKOCYTE COUNT / LYMPHOCYTE / MEAN CORPUSCULAR HEMOGLOBIN / MEAN CORPUSCULAR HEMOGLOBIN CONCENTRATION / MEAN CORPUSCULAR VOLUME / MONOCYTE / NEUTROPHIL / PLATELET COUNT: tissue Blood; for ALANINE AMINOTRANSFERASE / ALBUMIN / ALKALINE PHOSPHATASE / ASPARTATE AMINOTRANSFERASE / BLOOD UREA NITROGEN / CHLORIDE / CHOLESTEROL / CREATINE PHOSPHOKINASE / CREATININE / GLUCOSE / PHOSPHORUS / POTASSIUM / SODIUM / TOTAL PROTEIN: tissue Plasma
[1] = 0 mg/kg, 72 h, dose level Control, time 3 day
[2] = 0 mg/kg, 120 h, dose level Control, time 5 day
[3] = 3 mg/kg, 72 h, dose level Low, time 3 day
[4] = 3 mg/kg, 120 h, dose level Low, time 5 day
[5] = 37 mg/kg, 72 h, dose level High, time 3 day
[6] = 37 mg/kg, 120 h, dose level High, time 5 day

With `CN1CCC(=C2c3ccccc3C=Cc3ccccc32)CC1` [CYPROHEPTADINE] the BASOPHIL [1] was 0%, the EOSINOPHIL [1] was 0.33% and the “ERYTHROCYTE COUNT” value [1] was 6.03 x10E6/uL. For the same molecule, the HEMATOCRIT [1] was 38.8%, the HEMOGLOBIN [1] was 14.26 G/DL and the “LEUKOCYTE COUNT” value [1] was 10.64 x10E3/uL. For the same molecule, the LYMPHOCYTE [1] was 83.33%, the “MEAN CORPUSCULAR HEMOGLOBIN” value [1] was 23.64 pg and the “MEAN CORPUSCULAR HEMOGLOBIN CONCENTRATION” value [1] was 36.74 G/DL. For the same molecule, the “MEAN CORPUSCULAR VOLUME” value [1] was 64.32 fL, the MONOCYTE [1] was 3.33% and the NEUTROPHIL [1] was 13%. The “PLATELET COUNT” value [1] was 1264.4 x10E3/uL, the “ALANINE AMINOTRANSFERASE” value [1] was 38.83 u/L and the ALBUMIN [1] was 3.55 G/DL. The “ALKALINE PHOSPHATASE” value [1] was 368.33 u/L, the “ASPARTATE AMINOTRANSFERASE” value [1] was 66.17 u/L and the “BLOOD UREA NITROGEN” value [1] was 15.67 mg/dL. The CHLORIDE [1] was 104.33 MEQ/L, the CHOLESTEROL [1] was 76.5 mg/dL and the “CREATINE PHOSPHOKINASE” value [1] was 166.83 u/L. The CREATININE [1] was 0.52 mg/dL, the GLUCOSE [1] was 173.17 mg/dL and the PHOSPHORUS [1] was 11.68 mg/dL. The POTASSIUM [1] was 6.43 MEQ/L, the SODIUM [1] was 149.5 MEQ/L and the “TOTAL PROTEIN” value [1] was 5.93 G/DL. The BASOPHIL [2] was 0%, the EOSINOPHIL [2] was 0% and the “ERYTHROCYTE COUNT” value [2] was 5.88 x10E6/uL. For the same molecule, the HEMATOCRIT [2] was 37.87%, the HEMOGLOBIN [2] was 14.48 G/DL and the “LEUKOCYTE COUNT” value [2] was 12.43 x10E3/uL. For the same molecule, the LYMPHOCYTE [2] was 84.17%, the “MEAN CORPUSCULAR HEMOGLOBIN” value [2] was 24.65 pg and the “MEAN CORPUSCULAR HEMOGLOBIN CONCENTRATION” value [2] was 38.25 G/DL. For the same molecule, the “MEAN CORPUSCULAR VOLUME” value [2] was 64.47 fL, the MONOCYTE [2] was 4.33% and the NEUTROPHIL [2] was 11.5%. The “PLATELET COUNT” value [2] was 1182.33 x10E3/uL, the “ALANINE AMINOTRANSFERASE” value [2] was 38.67 u/L and the ALBUMIN [2] was 3.55 G/DL. For the same molecule, the “ALKALINE PHOSPHATASE” value [2] was 342.5 u/L, the “ASPARTATE AMINOTRANSFERASE” value [2] was 63.33 u/L and the “BLOOD UREA NITROGEN” value [2] was 15.5 mg/dL. For the same molecule, the CHLORIDE [2] was 104 MEQ/L, the CHOLESTEROL [2] was 75.5 mg/dL and the “CREATINE PHOSPHOKINASE” value [2] was 142.5 u/L. It also gave a CREATININE [2] of 0.62 mg/dL, a GLUCOSE [2] of 165.17 mg/dL and a PHOSPHORUS [2] of 10.87 mg/dL. For the same molecule, the POTASSIUM [2] was 6.85 MEQ/L, the SODIUM [2] was 150.17 MEQ/L and the “TOTAL PROTEIN” value [2] was 5.93 G/DL. The BASOPHIL [3] was 0%, the EOSINOPHIL [3] was 0% and the “ERYTHROCYTE COUNT” value [3] was 6.1 x10E6/uL. For the same molecule, the HEMATOCRIT [3] was 40.23%, the HEMOGLOBIN [3] was 15.13 G/DL and the “LEUKOCYTE COUNT” value [3] was 11.03 x10E3/uL. The LYMPHOCYTE [3] was 89.33%, the “MEAN CORPUSCULAR HEMOGLOBIN” value [3] was 24.8 pg and the “MEAN CORPUSCULAR HEMOGLOBIN CONCENTRATION” value [3] was 37.63 G/DL. The “MEAN CORPUSCULAR VOLUME” value [3] was 65.97 fL, the MONOCYTE [3] was 1% and the NEUTROPHIL [3] was 9.67%. The “PLATELET COUNT” value [3] was 1191.33 x10E3/uL, the “ALANINE AMINOTRANSFERASE” value [3] was 32.67 u/L and the ALBUMIN [3] was 3.6 G/DL. For the same molecule, the “ALKALINE PHOSPHATASE” value [3] was 369 u/L, the “ASPARTATE AMINOTRANSFERASE” value [3] was 58 u/L and the “BLOOD UREA NITROGEN” value [3] was 13.33 mg/dL. For the same molecule, the CHLORIDE [3] was 105.67 MEQ/L, the CHOLESTEROL [3] was 75.67 mg/dL and the “CREATINE PHOSPHOKINASE” value [3] was 139.67 u/L. The CREATININE [3] was 0.47 mg/dL, the GLUCOSE [3] was 159 mg/dL and the PHOSPHORUS [3] was 11.23 mg/dL. The POTASSIUM [3] was 6.9 MEQ/L, the SODIUM [3] was 151.33 MEQ/L and the “TOTAL PROTEIN” value [3] was 5.8 G/DL. For the same molecule, the BASOPHIL [4] was 0%, the EOSINOPHIL [4] was 0.67% and the “ERYTHROCYTE COUNT” value [4] was 6.35 x10E6/uL. For the same molecule, the HEMATOCRIT [4] was 39.23%, the HEMOGLOBIN [4] was 14.37 G/DL and the “LEUKOCYTE COUNT” value [4] was 13.2 x10E3/uL. The LYMPHOCYTE [4] was 89.33%, the “MEAN CORPUSCULAR HEMOGLOBIN” value [4] was 22.67 pg and the “MEAN CORPUSCULAR HEMOGLOBIN CONCENTRATION” value [4] was 36.63 G/DL. The “MEAN CORPUSCULAR VOLUME” value [4] was 61.83 fL, the MONOCYTE [4] was 1% and the NEUTROPHIL [4] was 9%. The “PLATELET COUNT” value [4] was 1248.67 x10E3/uL, the “ALANINE AMINOTRANSFERASE” value [4] was 39.67 u/L and the ALBUMIN [4] was 3.4 G/DL. The “ALKALINE PHOSPHATASE” value [4] was 503.67 u/L, the “ASPARTATE AMINOTRANSFERASE” value [4] was 62.67 u/L and the “BLOOD UREA NITROGEN” value [4] was 13.67 mg/dL. For the same molecule, the CHLORIDE [4] was 103.33 MEQ/L, the CHOLESTEROL [4] was 70 mg/dL and the “CREATINE PHOSPHOKINASE” value [4] was 134 u/L. For the same molecule, the CREATININE [4] was 0.53 mg/dL, the GLUCOSE [4] was 189.33 mg/dL and the PHOSPHORUS [4] was 12.93 mg/dL. For the same molecule, the POTASSIUM [4] was 6.83 MEQ/L, the SODIUM [4] was 147.67 MEQ/L and the “TOTAL PROTEIN” value [4] was 5.63 G/DL. For the same molecule, the BASOPHIL [5] was 0%, the EOSINOPHIL [5] was 0% and the “ERYTHROCYTE COUNT” value [5] was 5.89 x10E6/uL. The HEMATOCRIT [5] was 38%, the HEMOGLOBIN [5] was 13.37 G/DL and the “LEUKOCYTE COUNT” value [5] was 9.03 x10E3/uL. The LYMPHOCYTE [5] was 86%, the “MEAN CORPUSCULAR HEMOGLOBIN” value [5] was 22.7 pg and the “MEAN CORPUSCULAR HEMOGLOBIN CONCENTRATION” value [5] was 35.17 G/DL. The “MEAN CORPUSCULAR VOLUME” value [5] was 64.53 fL, the MONOCYTE [5] was 3.33% and the NEUTROPHIL [5] was 10.67%. For the same molecule, the “PLATELET COUNT” value [5] was 1233.33 x10E3/uL, the “ALANINE AMINOTRANSFERASE” value [5] was 33 u/L and the ALBUMIN [5] was 3.67 G/DL. For the same molecule, the “ALKALINE PHOSPHATASE” value [5] was 296.33 u/L, the “ASPARTATE AMINOTRANSFERASE” value [5] was 50.33 u/L and the “BLOOD UREA NITROGEN” value [5] was 15 mg/dL. The CHLORIDE [5] was 104.67 MEQ/L, the CHOLESTEROL [5] was 62.67 mg/dL and the “CREATINE PHOSPHOKINASE” value [5] was 128 u/L. For the same molecule, the CREATININE [5] was 0.5 mg/dL, the GLUCOSE [5] was 167.33 mg/dL and the PHOSPHORUS [5] was 12.37 mg/dL. The POTASSIUM [5] was 7.2 MEQ/L, the SODIUM [5] was 150.67 MEQ/L and the “TOTAL PROTEIN” value [5] was 5.93 G/DL. The BASOPHIL [6] was 0%, the EOSINOPHIL [6] was 0.33% and the “ERYTHROCYTE COUNT” value [6] was 5.95 x10E6/uL. The HEMATOCRIT [6] was 37.4%, the HEMOGLOBIN [6] was 13.8 G/DL and the “LEUKOCYTE COUNT” value [6] was 11.57 x10E3/uL. The LYMPHOCYTE [6] was 87.33%, the “MEAN CORPUSCULAR HEMOGLOBIN” value [6] was 23.23 pg and the “MEAN CORPUSCULAR HEMOGLOBIN CONCENTRATION” value [6] was 36.93 G/DL. For the same molecule, the “MEAN CORPUSCULAR VOLUME” value [6] was 62.9 fL, the MONOCYTE [6] was 0% and the NEUTROPHIL [6] was 12.33%. The “PLATELET COUNT” value [6] was 1286.67 x10E3/uL, the “ALANINE AMINOTRANSFERASE” value [6] was 35 u/L and the ALBUMIN [6] was 3.4 G/DL. For the same molecule, the “ALKALINE PHOSPHATASE” value [6] was 311.67 u/L, the “ASPARTATE AMINOTRANSFERASE” value [6] was 52 u/L and the “BLOOD UREA NITROGEN” value [6] was 14 mg/dL. For the same molecule, the CHLORIDE [6] was 102.33 MEQ/L, the CHOLESTEROL [6] was 50.67 mg/dL and the “CREATINE PHOSPHOKINASE” value [6] was 124 u/L. The CREATININE [6] was 0.53 mg/dL, the GLUCOSE [6] was 159.67 mg/dL and the PHOSPHORUS [6] was 12.5 mg/dL. The POTASSIUM [6] was 6.77 MEQ/L, the SODIUM [6] was 148.67 MEQ/L and the “TOTAL PROTEIN” value [6] was 5.7 G/DL.

Source: ChEMBL document CHEMBL3885881, “DrugMatrix”
